# From patent US9598399B2, “Compound suitable for detection of mitochondrial complex-1” (HAMAMATSU PHOTONICS K.K., priority 2012, dated 2017)
# What was measured:
# mitochondrial Complex-1 [1] = test: Autoradiography using living rat brain slices, inhibition of probe binding by rotenone; conditions: for binding inhibitory effect by rotenone on probe binding: rotenone 2-20000 nM, probe 1 MBq/ml, FIGS. 3 and 4
# Description: A rat was anesthetized with chloral hydrate (400 mg/kg; I.P.) and decapitated. Thereafter, the brain was immediately sampled and cooled sufficiently, and the cooled brain was immersed in ACSF (artificial cerebrospinal fluid) in a sherbet state. A necessary block of the obtained brain was cut and adhered to a fixing platform of a vibration microtome HM650V (Thermo Fisher Scientific, Inc., Waltham, USA). Thereafter, brain slices having a thickness of 300 μm were produced. The cut brain slices were immersed in 24 ml of ACSF for 30 minutes under bubbling with O2, and thus the activities of cells were calmed. Thereafter, 20 μL of Vehicle or Rotenone (adjusted to concentrations of 2 nM, 20 nM, 200 nM, and 20000 nM in respective beakers) was added to ACSF, and the mixture was bubbled for 30 minutes. Furthermore, 1 MBq/ml of [^18F]BMS or [^18F]BCPP-EF was added to the ACSF, and bubbling was continued for 30 minutes. After completion of the bubbling, the brain slices were taken out and transferred to 100 ml of fresh ACSF. Subsequently, excess RI was washed away by bubbling the ACSF for another 30 minutes. Thereafter, the brain slices were arranged in a row on an OHP sheet, and an image thereof was captured with a scanner (Epson: GT-600). Subsequently, the OHP sheet having the brain slices arranged in a row thereon was placed on an imaging plate (ST-VI, Fujifilm Corp., Tokyo) having sensitivity to radiation, and the OHP sheet was left to stand for about one hour in the dark (contact). The imaging plate was subjected to detection with a Fluoro Image Analyzer, FLA-7000 (Fujifilm Corp., Tokyo).
# mitochondrial Complex-1 [2] = test: PET analysis of rotenone-administered rat (brain and heart); assay type: in vivo; conditions: rat cerebellum, cerebral cortex, corpus striatum and heart; rotenone 0.1 mg/kg/h i.v.; FIGS. 5 and 6
# Description: A rat was anesthetized with chloral hydrate (400 mg/kg; I.P.) and was immobilized on a bed for measurement. Immediately thereafter, rotenone (0.1 mg/kg/h) or a vehicle was administered through the tail vein of the rat. In order to identify the position of the brain during the administration, an analysis was carried out using Clairvivo-CT (Shimadzu Corp.). Thereafter, the bed for measurement was moved to Clairvivo PET. After the administration of rotenone (0.1 mg/kg/h) or the vehicle was completed, [^18F]BMS or [^18F]BCPP-EF was immediately bolus administered in an amount of about 8 MBq/animal through the tail vein of the rat, and the measurement was carried out for 60 minutes. During the measurement, chloral hydrate (100 mg/kg/hr) was continuously administered through the tail vein of the rat, and thereby the rat was inactivated.
# [3] = system: site of ischemic disorder in the brain; test: PET analysis of rat cerebral infarction (PIT) model with blocked middle cerebral artery; assay type: in vivo; conditions: for accumulation of probe in site of ischemic disorder: Normal, Day-1, Day-7, PET 60 minutes
# Description: The rat was subjected to anesthesia induction using 4% halothane (30% O2, 70% room air), and during the surgery, the halothane concentration was maintained at 1.5% to 2%. The skin was incised along the left eye cavity margin under a surgical microscope, and an elliptical window (hole) having a size of about 3 mm was cut open in the lower cranium using a dental drill so that the left middle cerebral artery could be seen under the dura mater. Photosensitizer Rose Bengal (20 mg/kg) was administered through the tail vein of the rat, the middle cerebral artery was irradiated with green light having a wavelength of 540 nm for 10 minutes, and thus cerebral infarction was developed in the rat.
# In the respective rats before the onset of cerebral infarction (Normal), 1 day after the onset of cerebral infarction (Day-1), and 7 days after the onset of cerebral infarction (Day-7), glucose metabolism (using [^18F]FDG as a probe) and the activity of mitochondrial Complex-1 (using [^18F]BMS or [^18F]BCPP-EF as a probe) in the sites of ischemic disorder in the brain were monitored by the PET method. Specifically, each of the probes was bolus administered in an amount of 6 to 8 MBq/animal through the tail vein of the rat, and the analysis was carried out for 60 minutes. During the analysis, the rat was inactivated by continuously administering chloral hydrate (100 mg/kg/hr) through the tail vein of the rat.
# mitochondrial Complex-1 [4] = test: PET experiment on inhibition of binding to mitochondrial Complex-1 by rotenone administration in monkey brain; assay type: in vivo; conditions: compared with [18F]BMS
# Description: (§1) Cephalic vein or saphenous vein was secured as the route of intravenous administration to the test animal, and femoral artery or posterior tibial artery was secured as the route for collecting arterial blood. First, the amount of radioactivity of [^18F]BMS, [^18F]BCPP-EF or [^11C]BCPP-EM was measured. As radioactive agents, [^18F]BMS and [^18F]BCPP-EF were administered through an indwelling needle indwelled in a test animal in an amount of administration of 300 to 500 MBq, and [^11C]BCPP-EM was administered in an amount of administration of 800 to 1200 MBq, such that the entire amount of the radioactive agent was intravenously administered over about 30 seconds. Simultaneously with the initiation of administration of the radioactive agent, measurement of emission (6 frames of 10 seconds, 6 frames of 30 seconds, 12 frames of 1 minute, 25 frames of 3 minutes, and 6 frames of 5 minutes; 55 frames for 121 minutes in total) was initiated.
# In the experiment on the inhibition of PET probe binding by rotenone administration in the brain of a monkey, rotenone was administered to the test animal by intravenous injection in an amount of 0.1 mg/kg/hr. Subsequently, [^18F]BMS, [^18F]BCPP-EF or [^11C]BCPP-EM was administered as a probe, and a PET analysis was carried out.
# mitochondrial Complex-1 [5] = test: PET analysis of intracerebral activity of mitochondrial Complex-1 in young and aged monkey; assay type: in vivo; conditions: young monkey (5 years old) versus aged monkey (22 years old), FIG. 10
# Description: as §1
# The results of a PET analysis obtained from a young monkey (5 years old) and an aged monkey (22 years old) are presented in FIG. 10. [^18F]BCPP-EF was used as the PET probe.
# mitochondrial Complex-1 [6] = test: PET analysis of intracerebral activity of mitochondrial Complex-1 in Parkinson's disease model monkey; assay type: in vivo, Macaca fascicularis; conditions: Parkinson's disease (MPTP) model monkey versus normal monkey, FIG. 11
# Description: as §1, with “Simultaneously with the initiation of administration of the radioactive agent, measurement of emission (6 frames of 10 seconds, 6 frames of 30 seconds, 12 frames of 1 minute, 25 frames of 3 minutes, and 6 frames of 5 minutes; 55 frames for 121 minutes in total) was initiated.” left out
# A comparison of the intracerebral activity of mitochondrial Complex-1 was made between a normal monkey and a Parkinson's disease model monkey by a PET analysis. […] The degree of motility disturbance in the limbs was evaluated by observing the way that the Macaca fascicularis monkey picked up the feed, and also, by measuring the decrease in the sites of dopamine reabsorption using a PET analysis, it was finally confirmed that the Macaca fascicularis monkey had the condition of Parkinson's disease.
# Oil-solubility (log P) = assay type: physicochemical
# mitochondrial Complex-1 [7] = test: In vitro autoradiography of rat brain slices and in vivo PET of living rat brain (background evaluation of [18F]BMS)
# Text: On the other hand, it has been reported that [^18F]BMS-747158-02 (2-tert-butyl-4-chloro-5-[4-(2-fluoroethoxymethyl)-benzyloxy]-2H-pyridazin-3-one, [^18F]BMS) serves as a PET probe that recognizes mitochondrial Complex-1 (hereinafter, may be referred to as “MC-1”), and this compound is used in a functional evaluation of the brain or the heart (Patent Literature 1 and Non-Patent Literature 1).
compound,measurement,setting,value
CC(C)(C)n1ncc(OCc2ccc(OCCOCC[18F])nc2)c(Cl)c1=O [[^18F]BCPP-EF],specificity to mitochondrial Complex-1,mitochondrial Complex-1 [1]; compared with [18F]BMS,higher specificity to mitochondrial Complex-1 than [^18F]BMS
same,binding inhibitory effect by rotenone on probe binding,mitochondrial Complex-1 [1],more likely to be affected by the binding inhibitory effect by rotenone than [^18F]BMS
same,uptake quantity of probe after administration of rotenone,mitochondrial Complex-1 [2],further reduced by the administration of rotenone than that of [^18F]BMS
same,accumulation of probe in site of ischemic disorder,"[3]; rat PIT model, FIG. 7",no accumulation of the probe was observed in the site of ischemic disorder
same,"degree of accumulation of probe, site of ischemic disorder versus normal site","[3]; rat PIT model, compared with [18F]BMS, FIG. 7",clearly different between a site of ischemic disorder and a normal site
same,specificity to mitochondrial Complex-1,mitochondrial Complex-1 [4],higher specificity to mitochondrial Complex-1 than [^18F]BMS
same,binding inhibitory effect of rotenone on probe binding,"mitochondrial Complex-1 [4]; rotenone 0.1 mg/kg/hr i.v., FIGS. 8 and 9",more likely to be affected by the binding inhibitory effect of rotenone
same,amount of PET probe accumulated in the brain,mitochondrial Complex-1 [5],a larger amount of the PET probe was accumulated in the brain in the young monkey than in the aged monkey
same,amount of PET probe accumulating in the brain,mitochondrial Complex-1 [6],"smaller in the Parkinson's disease model monkey, compared with the normal monkey"
CC(C)(C)n1ncc(OCc2ccc(OCCCC[18F])nc2)c(Cl)c1=O [[^18F]BCPP-BF],binding inhibitory effect by rotenone on probe binding,mitochondrial Complex-1 [1],affected by the binding inhibitory effect of rotenone
"CC(C)(C)n1ncc(OCc2ccc(COCCF)cc2)c(Cl)c1=O [[^18F]BMS, 2-tert-butyl-4-chloro-5-[4-(2-fluoroethoxymethyl)-benzyloxy]-2H-pyridazin-3-one]",accumulation of probe in site of ischemic disorder,"[3]; rat PIT model, FIG. 7",no accumulation of the probe was observed in the site of ischemic disorder
same,logP,Oil-solubility (log P),1.42
same,non-specific binding capacity,mitochondrial Complex-1 [7]; rat brain,high non-specific binding capacity
same,inhibitory effect in inhibition experiment using rotenone,"mitochondrial Complex-1 [7]; rotenone, inhibitory drug specific to Complex-1",an inhibitory effect cannot be sufficiently checked
"OC[C@H]1OC(O)[C@H]([18F])[C@@H](O)[C@@H]1O (stereo partly shown) [[^18F]FDG, ^18F-fluorodeoxyglucose]",accumulation of probe in site of ischemic injury of the brain,"[3]; cerebral infarction model rat, PET, background statement",accumulation of [^18F]FDG is increased
same,accumulation of probe in site of ischemic disorder,"[3]; rat PIT model, FIG. 7",accumulation of [^18F]FDG increased in the site of ischemic disorder
